Literature values, collected in patent US20130004563A1, “MULTIP[…]-ADENOSYLMETHIONINE COMPOSITIONS AND RELATED METHODS” (priority 2011, published 2013).

Assays:
[1] = not given; remark: listed apart in the source

For S-adenosyl-L-methionine [SAMe], the SAMe bioavailability (enteric-coated single unit tablets, compared with immediate release formulations) is listed as “higher”, the half-life (in the body, single dose) is listed as “approximately 6 hours” and the stability in vitro [1] is listed as “relatively unstable”.
